Reference: patent publication US10076525B2, “Sex steroid precursors alone or in combination with selective estrogen receptor modulators for the prevention and treatment of dyspareunia in postmenopausal women” (ENDORECHERCHE, INC., priority 2004, dated 2018)

How the values were obtained:
rat vagina [1] = assay: Histological evaluation of epithelium, lamina propria and muscularis in the seven rat vaginal segments; format: in vivo; conditions: OVX rats, 36 wk; for epithelium morphology: Acolbifene 2.5, Premarin 0.5 mg/kg oral, DHEA 80 mg/kg dorsal skin
Description: (§1) The animals were housed individually and were allowed free access to water and rodent food (Lab Diet 5002, Ralston Purina, St-Louis, Mo.).
(§2) Animals from the intact and OVX control groups received the vehicle alone.
(§3) Twenty-four hours after the last dosing, overnight fasted animals were sacrificed under isoflurane anesthesia by exsanguination at the abdominal aorta (9 animals per group) or by intracardiac perfusion with 10% neutral buffered formalin (5 animals per group). Vaginae from non-perfused animals were collected and weighed, while the vaginae collected from perfused animals were marked with black ink on the ventral side, and then trimmed as described below.
(§4) The entire vagina of each perfused animal was post-fixed in 10% neutral buffered formalin.
The degree of compactness of collagen fibers in the vagina was categorized as low, moderate and high (FIGS. 6A-6C, respectively), as observed in the area proximal to the epithelium. <<Low>> and <<moderate compactness>> were associated with the presence of coarse collagen fibers loosely or less loosely aggregated together, respectively, while <<high compactness>> was the term used to describe tightly packed fine collagen fibers, displaying a smooth, textured appearance. In all the animals, there were relatively few fibrocytes in proportion to the amount of collagen, and they appeared predominantly flattened and shrunken.

rat vagina [2] = assay: Histomorphometry: thickness of vaginal layers at the fifth segment; format: in vivo; conditions: OVX rats, 36 wk
Description: as §2, §3, §4
Measurements of the different vaginal layers were performed on the fifth segment (FIG. 1), which is approximately halfway between the middle region and the portio vaginalis uteri (segment 7). […] Images were captured with a DC-330 3CCD color camera (Dage-MTI, Michigan City, Ind., USA) and quantified using Image-Pro Plus 3.0 software (Media Cybernetics, Silver Spring, Md., USA). Thus, using a ×5 objective (Leica Microsystems, Willowdale, Ont., Canada), 3 to 4 thickness measurements per layer were obtained from representative areas of the epithelium and muscularis, and for the three vaginal layers together. The total vaginal thickness, the thickness of the epithelium and the thickness of the muscularis were thus measured. The thickness of the lamina propria was obtained by subtracting the thickness of the epithelium and muscularis from total vaginal thickness.
Data are presented as means±SEM of 8-9 animals per group for vaginal weight or 5 animals per group for vaginal layer thickness determinations. Statistical significance was determined according to the multiple-range test of Duncan-Kramer (Kramer, 1956, Biometrics, 12: 307-310).

ERα = assay: Immunohistochemistry of ERα in fifth vaginal segment; format: in vivo, rat; conditions: OVX rats, 36 wk
Procedure: as §2
Immunostaining was performed using Zymed SP kits (San Francisco, Calif.). Paraffin sections (4 μm) were deparaffinized in toluene and rehydrated through ethanol. Endogenous peroxidase activity was eliminated by preincubation with 3% H2O2 in methanol for 30 min. A microwave retrieval technique using citrate buffer (Tacha and Chen, 1994) was applied. After cooling the slides, non-specific binding was blocked using 10% goat serum for 20 min. Sections were then incubated for 1.5 h at room temperature with ERα (AB-1, Calbiochem, California), AR (N-20, Santa Cruz Biotechnology, California) or PR (Ab-4, NeoMarkers, California) antibodies, at 1:200, 1:250 and 1:250 respectively. After washing in PBS buffer, sections were incubated with biotinylated anti-rabbit secondary antibody for 10 min and thereafter with streptavidin-peroxidase for another 10 min. Diaminobenzidine was used as the chromogen to visualize the biotin/streptavidin-peroxidase complex, under microscope monitoring. Counterstaining was performed using #2 Gill's hematoxylin for 30 sec. For controls, immunoabsorption with an excess of the peptide used to raise the antibody, or substitution with non immune rabbit IgG, was performed.

[3] = DHEA blood levels after topical DHEA (Example 1); format: in vivo, rat; conditions: DHEA 80 mg/kg topically on dorsal skin, rats
Description: as §2

rat vagina [4] = assay: Intravaginal DHEA suppository: vaginal epithelium morphology in OVX rats (Example 3); format: in vivo; conditions: 14 days
Description: as §1
(§5) The insertion into the vagina of one suppository began on day 5 of the study and was continued once daily until day 18 of the study, for a total of 14 days of treatment. The suppository was gently placed in the vaginal opening and then delicately pushed about 2-3 mm inside the vagina with the help of a small, smooth glass stick, disinfected in 70% alcohol and dried between each animal.
Vagina—including the urethra—and uterus were collected, and then trimmed as described below. For further analysis, two pieces of inguinal mammary gland were sampled, as well as a square piece of about 2 X 2 cm of shaved dorsal skin, the latter being put and gently flattened on a piece of carton.
Any other lipophilic base such as Fattibase, Wecobee, cocoa butter, theobroma oil or other combinations of Whitepsol bases could also be used. […] The proper amount of suppository base pellets to weight in order to obtain the final volume needed was calculated based on the previously measured density of the suppository base, which was 47.5 mg per 50 μl. The suppository base was put in a small beaker, melted in microwave at power 50% for about 3 min and 30 sec and then transferred on a heating plate, which was adjusted at the lowest power in order to keep the suppository base at a temperature of 50±3° C. […] These moulds were made from microcentrifuge tubes, each of them previously calibrated with 50 μl of water and cut at the level of the line drawn at the water surface. After 30 min of cooling at room temperature, the suppositories were put at 4° C. for another 30 min. Finally, the excess of base was trimmed with a razor blade and the suppositories were removed from their moulds and stored in closed glass bottles at 4° C. until use. They were allowed to reach room temperature before being applied to the animals.
The organs were immersed in 10% neutral buffered formalin immediately after resection. Each vagina and uterus was divided into 8 equal cross-segments and 4 cross-segments including two from the cervix and two from each of the two proximal and distal horns, respectively. The segments were then routinely processed and embedded all together in the same paraffin block.
Segment 6 represented the deeper vaginal mucosa and is separated from the uterine cervix by only one segment.

[5] = Body weight after 14-day intravaginal DHEA suppository; format: in vivo, rat; conditions: OVX rats, 14 days
Description: as §1, §5

[6] = Serum concentration of DHEA after intravaginal application; format: in vivo; conditions: female, rat
Description: as §5

rat vagina [7] = conditions: ovariectomized rat, DHEA 30 mg twice daily on dorsal skin, one, three or six months; cited from earlier work

## C[C@]12CC[C@H](O)CC1=CC[C@@H]1[C@@H]2CC[C@]2(C)C(=O)CC[C@@H]12 [DHEA, dehydroepiandrosterone]
Rat vagina [1]; at the doses used
  reversal of the OVX-induced epithelial atrophy: partially reversed
Rat vagina [1]; segment 5
  layers of mucous cells in the vaginal epithelium: 3-5 layers
  epithelium morphology: LHM
Rat vagina [1]; segment 1
  epithelium morphology: KS-LHM
Rat vagina [1]; segment 2
  epithelium morphology: LHM
Rat vagina [1]; segment 3
  epithelium morphology: LHM
Rat vagina [1]; segment 4
  epithelium morphology: LHM
Rat vagina [1]; segment 6
  epithelium morphology: LHM-SCM
Rat vagina [1]; segment 7
  epithelium morphology: LHM-SCM
Rat vagina [2]; fifth segment
  total vaginal thickness lower than that of the Premarin alone-treated group: about 25%
Rat vagina [2]; fifth segment, mean±SEM
  muscularis thickness: 50±2 μm
  thickness of the vaginal epithelium: 38±4 μm
Rat vagina [2]; fifth segment, mean±SEM, OVX 128±3, intact 262±39
  total vaginal wall thickness: 184±21 μm
Rat vagina [2]; fifth segment, mean±SEM, total minus epithelium and muscularis, OVX 76±2, intact 135±28
  lamina propria thickness: 96±20 μm
Rat vagina [2]; 46% decrease after OVX
  reversal of the OVX-induced decrease of the vaginal muscular layer: 41%
Rat vagina [2]; 50% decrease after OVX
  reversal of the OVX-induced decrease in total vaginal wall thickness: 42%
ERα; epithelium
  ERα: labeling intensity: ++
  ERα: semi-quantitative evaluation of labeled nuclei: 2
ERα; lamina propria
  ERα: labeling intensity: +++
  ERα: semi-quantitative evaluation of labeled nuclei: 2
ERα; muscularis
  ERα: labeling intensity: +++
  ERα: semi-quantitative evaluation of labeled nuclei: 3
[3]
  DHEA blood levels: 70 to 100 nmol/L
Rat vagina [4]; DHEA 0.33 mg/suppository intravaginal, segment 6
  vaginal epithelium thickness: 2-5 cell layers
Rat vagina [4]; DHEA 0.33 mg/suppository, unevenly distributed over the whole vagina
  animals displaying mild inflammation: four
Rat vagina [4]; DHEA 0.66 mg/suppository, three external segments
  animals displaying mild inflammation: two
Rat vagina [4]; DHEA 1.00 mg/suppository, four external segments
  animals displaying mild inflammation: four
[5]; DHEA 0.33 mg suppository intravaginal
  body weight compared with placebo group: slightly decreased
[5]; DHEA 0.66 mg suppository intravaginal
  body weight compared with placebo group: slightly decreased
[5]; DHEA 1 mg suppository intravaginal
  decrease of body weight compared with placebo group: more pronounced
[6]; 0.33 mg
  AUC: 32 ± 4 ng·h/mL
[6]; 0.66 mg
  AUC: 50 ± 7 ng·h/mL
[6]; 1 mg
  AUC: 131 ± 23 ng·h/mL
Rat vagina [7]
  histopathologic examination of the vagina: reversal of vaginal mucosal atrophy
